{
  "source": "patent US8927724B2",
  "about": "“Isoxazole beta-lactamase inhibitors” (priority 2012, dated 2015)",
  "note": "Counter-ions that a name gives are not always drawn.",
  "data": [
    {"system": "bacterial strains that express KPC β-lactamases", "test": "Synergy MIC / standard BLI potentiation MIC assay, strains expressing KPC β-lactamases", "type": "cell-based", "settings": "at least one KPC strain and/or better spectrum; in the presence of a β-lactam", "protocol": "The experimental protocol was performed according to Clinical and Laboratory Standards Institute (CLSI) guidelines with modifications as described below (CLSI guidelines can be derived from the CLSI document M07-A9 published in January 2012: “Methods for Dilution Antimicrobial Susceptibility Tests for Bacteria That Grow Aerobically; Approved Standard-Ninth Edition”).\nTo prepare for MIC testing, frozen glycerol stocks of clinical isolates (Klebsiella pneumoniae, Eschericia coli, Enterobacter spp, Citrobacter spp, or Pseudomonas aeruginosa) were used to streak for isolated colonies on rich, non-selective, tryptic soy agar containing 5% sheep's blood (TSAB). Frozen glycerol stocks of laboratory engineered, isogenic E. coli strains, which contain cloned β-lactamase expressing plasmids were used to streak for isolated colonies on rich, selective LB agar supplemented with 25 μg/mL tetracycline to maintain the plasmid. All strains were incubated at 37° C. for 18-24 hrs.\nOn the day of testing, primary cultures were started by scraping off 5-10 colonies from the TSAB plates containing clinical strains or the tetracycline supplemented LB plates containing engineered strains. The clinical strain material was suspended in ˜5 mL of cation adjusted Mueller Hinton Broth (CAMHB) in 14 mL culture tubes. The engineered strain material was suspended in CAMHB (supplemented with 25 μg/mL tetracycline) in 14 mL culture tubes. All strains were incubated at 37° C. with aeration (200 rpm) for ˜2 hrs until the optical density at 600 nm (OD600) was >0.1.\nThe two compound components of the assay were each diluted in CAMHB and added to the 96-well broth microdilution assay plates. 50 μL of the β-lactam was added to each well of the assay plate in 2-fold dilutions with final concentrations ranging from 128 to 0.13 μg/mL. 25 μL of the BLI compound was added to all wells in the broth microdilution plates at a final concentration of 4 μg/mL. Inoculum cultures were prepared by standardizing the primary cultures to OD600=0.1 and then adding 20 μL of the adjusted primary culture per 1 mL CAMHB for clinical strains or CAMHB (supplemented with tetracycline at 100 μg/mL) for engineered strains, so that the final inoculum density was ˜10^5 colony forming units per milliliter. Diluted inoculum cultures were used to inoculate 25 μl, per well in 96-well broth microdilution assay plates. The final volume of each well was 100 μL and contained a β-lactam at different concentrations, a BLI compound at 4 μg/mL concentration, the bacterial culture at an OD600 of approximately 0.001 and when necessary tetracycline at 25 μg/mL.\nPlates were incubated for 18-20 hours at 37° C. with aeration (200 rpm). Following incubation, growth was confirmed visually placing plates over a viewing apparatus (stand with a mirror underneath) and then OD600 was measured using a SpectraMax 340PC384 plate reader (Molecular Devices, Sunnyvale, Calif.). Growth was defined as turbidity that could be detected with the naked eye or achieving minimum OD600 of 0.1. MIC values were defined as the lowest concentration producing no visible turbidity.\nThe synergy MIC (sMIC) assay determines the concentration of the BLI required to potentiate the activity of a fixed concentration of a β-lactam antibiotic against β-lactamase producing bacterial strains. The experimental protocol was performed according to Clinical and Laboratory Standards Institute (CLSI) guidelines with modifications as described below (CLSI guidelines can be derived from the CLSI document M07-A9 published in January 2012: “Methods for Dilution Antimicrobial Susceptibility Tests for Bacteria That Grow Aerobically; Approved Standard-Ninth Edition”). […]", "values": [
      {"compound": "N=C(N)NCC(O)c1cc([C@@H]2CC[C@@H]3CN2C(=O)N3OS(=O)(=O)O)no1", "note": "(single isomer, unassigned) [Compound 612, (2S,5R)-2-(5-((S*)-2-guanidino-1-hydroxyethyl)isoxazol-3-yl)-7-oxo-1,6-diazabicyclo[3.2.1]octan-6-yl hydrogen sulfate]", "activity and/or spectrum of activity against bacterial strains that express KPC β-lactamases, compared with Avibactam": "more active than Avibactam"},
      {"compound": "NCc1cc([C@@H]2CC[C@@H]3CN2C(=O)N3OS(=O)(=O)O)no1", "note": "[Compound 601, (2S,5R)-2-(5-(aminomethyl)isoxazol-3-yl)-7-oxo-1,6-diazabicyclo[3.2.1]octan-6-yl hydrogen sulfate]", "activity and/or spectrum of activity against bacterial strains that express KPC β-lactamases, compared with Avibactam": "more active than Avibactam"},
      {"compound": "NCCNC(=O)c1cc([C@@H]2CC[C@@H]3CN2C(=O)N3OS(=O)(=O)O)no1", "note": "[Compound 605, (2S,5R)-2-(5-((2-aminoethyl)carbamoyl)isoxazol-3-yl)-7-oxo-1,6-diazabicyclo[3.2.1]octan-6-yl hydrogen sulfate]", "activity and/or spectrum of activity against bacterial strains that express KPC β-lactamases, compared with Avibactam": "more active than Avibactam"},
      {"compound": "N=C(N)N1CCC(c2cc([C@@H]3CC[C@@H]4CN3C(=O)N4OS(=O)(=O)O)no2)CC1", "note": "[Compound 607, (2S,5R)-2-(5-(1-carbamimidoylpiperidin-4-yl)isoxazol-3-yl)-7-oxo-1,6-diazabicyclo[3.2.1]octan-6-yl hydrogen sulfate]", "activity and/or spectrum of activity against bacterial strains that express KPC β-lactamases, compared with Avibactam": "more active than Avibactam"},
      {"compound": "N=C(N)NCCNC(=O)c1cc([C@@H]2CC[C@@H]3CN2C(=O)N3OS(=O)(=O)O)no1", "note": "[Compound 608, (2S,5R)-2-(5-((2-guanidinoethyl)carbamoyl)isoxazol-3-yl)-7-oxo-1,6-diazabicyclo[3.2.1]octan-6-yl hydrogen sulfate]", "activity and/or spectrum of activity against bacterial strains that express KPC β-lactamases, compared with Avibactam": "more active than Avibactam"},
      {"compound": "O=C1N2C[C@@H](CC[C@H]2c2cc(CCNC3CCNCC3)on2)N1OS(=O)(=O)O", "note": "[Compound 609, (2S,5R)-7-oxo-2-(5-(2-(piperidin-4-ylamino)ethyl)isoxazol-3-yl)-1,6-diazabicyclo[3.2.1]octan-6-yl hydrogen sulfate]", "activity and/or spectrum of activity against bacterial strains that express KPC β-lactamases, compared with Avibactam": "more active than Avibactam"},
      {"compound": "N=C(N)N1CCC(NCCc2cc([C@@H]3CC[C@@H]4CN3C(=O)N4OS(=O)(=O)O)no2)CC1", "note": "[Compound 610, (2S,5R)-2-(5-(2-((1-carbamimidoylpiperidin-4-yl)amino)ethyl)isoxazol-3-yl)-7-oxo-1,6-diazabicyclo[3.2.1]octan-6-yl hydrogen sulfate]", "activity and/or spectrum of activity against bacterial strains that express KPC β-lactamases, compared with Avibactam": "more active than Avibactam"},
      {"compound": "N=C(N)NC1(Cc2cc([C@@H]3CC[C@@H]4CN3C(=O)N4OS(=O)(=O)O)no2)CC1", "note": "[Compound 613, (2S,5R)-2-(5-((1-guanidinocyclopropyl)methyl)isoxazol-3-yl)-7-oxo-1,6-diazabicyclo[3.2.1]octan-6-yl hydrogen sulfate]", "activity and/or spectrum of activity against bacterial strains that express KPC β-lactamases, compared with Avibactam": "more active than Avibactam"},
      {"compound": "N=C(N)NCCCc1cc([C@@H]2CC[C@@H]3CN2C(=O)N3OS(=O)(=O)O)no1", "note": "[Compound 615, (2S,5R)-2-(5-(3-guanidinopropyl)isoxazol-3-yl)-7-oxo-1,6-diazabicyclo[3.2.1]octan-6-yl hydrogen sulfate]", "activity and/or spectrum of activity against bacterial strains that express KPC β-lactamases, compared with Avibactam": "more active than Avibactam"},
      {"compound": "N[C@H]1C[C@@H](c2cc([C@@H]3CC[C@@H]4CN3C(=O)N4OS(=O)(=O)O)no2)C1", "note": "[Compound 616, (2S,5R)-2-(5-((1s,3R)-3-aminocyclobutyl)isoxazol-3-yl)-7-oxo-1,6-diazabicyclo[3.2.1]octan-6-yl hydrogen sulfate]", "activity and/or spectrum of activity against bacterial strains that express KPC β-lactamases, compared with Avibactam": "more active than Avibactam"}
    ]}
  ]
}
